Here are results for one compound from patent US8912146B2, “Derivatives of APF and methods of use” (University of Maryland, Baltimore, priority 2008, dated 2014).

The test system of one test is Hs839.T melanoma cells. In words: 3H-thymidine incorporation in melanoma cells. The format is cell-based. The procedure: Ovarian carcinoma (Caov-3), prostate carcinoma (LNCaP), melanoma (Hs839.T), pancreatic carcinoma (PANC-1), bladder carcinoma (T24, RT4 and TCCSuP), kidney carcinoma (ACHN), cervical carcinoma (HeLa), lung carcinoma (A549), colon carcinoma (WiDr), and breast carcinoma (Bt-474) cells were all purchased from the American Type Culture Collection (ATCC). Caov-3, HS839.T, PANC-1, and BT-474 cells were grown in DMEM medium (with 4 mM L-glutamine—Gibco BRL) containing 10% heat-inactivated fetal calf serum, 4.5 g/L glucose, 1.5 g/L sodium bicarbonate and 1% antibiotic/antimycotic solution (all supplements from Sigma except sodium bicarbonate which is from Gibco BRL). LNCaP cells were grown in RPMI medium (with 2 mM L-glutamine—Gibco BRL) containing10% heat-incativated fetal calf serum, 10 mM HEPES buffer, 1 mM sodium pyruvate, 4.5 g/L glucose, 1.5 g/L sodium bicarbonate, and 1% antibiotic/antimycotic solution (all supplements from Sigma except sodium bicarbonate which is from Gibco BRL). T24 and RT4 cells were grown in McCoy's 5A medium (Gibco BRL) containing 10% heat-inactivated fetal calf serum, 1% L-glutamine, 2.2 g/L sodium bicarbonate, and 1% antibiotic/antimycotic solution (all supplements from Sigma except sodium bicarbonate which is from Gibco BRL). TCCSuP, HeLa, and WiDr cells were grown in MEM (Gibco BRL) containing 10% heat-inactivated fetal calf serum, 1% L-glutamine, 1 mM sodium pyruvate, and 1% antibiotic/antimycotic solution (all supplements from Sigma). ACHN cells were grown in the same medium as TCCSuP and HeLa cells with the exception that it also contained 1.5 g/L sodium bicarbonate (Gibco BRL). A549 cells were grown in F12 medium (Gibco BRL) containing 10% heat-inactivated fetal calf serum, 1% L-glutamine, and 1% antibiotic/antimycotic solution (all supplements from Sigma).
Cancer (carcinoma or melanoma) cell proliferation was measured by ^3H-thymidine incorporation into each type of cancer cell, plating 3.0×10^3 cells/well (A549 cells) or 1.5×10^3 cells/well (all other cancer cells) onto a 96 well cell culture plate (VWR 29442-054), in 150 ul/well of the respective normal growth medium for each cell type (see above). All APF congeners were resuspended as described for normal bladder epithelial cells, except using the specific serum-free medium appropriate for each cell type, and the remainder of the assay was performed as described for normal bladder cells, above.
(§1) Significance of the difference in mean values between groups was determined by an analysis of variance.
(§2) Cell proliferation was measured by ^3H-thymidine incorporation into each cell type, plating cells in […] of their respective medium (see above) onto a 96-well cell culture plate (Corning, N.Y.) at a predetermined optimal cell density for APF inhibition of cell proliferation: Caov-3, PANC-1, T24, HeLa, and HS839.T cells were plated at a density of 1.5×10^3 cells/well; A549 cells were plated at a density of 3×10^3 cells/well. On the next day, cell growth medium was removed and replaced with serum-free medium appropriate for each cell type. […] Cells were then incubated at 37° C. in a 5% CO2 atmosphere for 48 hours, after which cell contents were harvested, methanol-fixed onto glass fiber filter paper, and the amount of radioactivity incorporated determined. […]
In general terms: Incorporation of labelled thymidine or its analogues reports DNA synthesis.

Test [1] relates to primary normal human bladder epithelial cells. As to conditions: Keay et al., 2004; cited from earlier work.
For test [2], the system named is Akt/GSK3/beta catenin signaling in T24 bladder carcinoma cells. In words: Western blot / qRT-PCR of Akt/GSK3/beta catenin signaling in T24 cells. The format is cell-based. As to conditions: 50 nM. The procedure:
Gene expression was determined by quantitative RT-PCR, and specific protein expression or phosphorylation was determined by Western blot. p53 mRNA and protein expression served as positive controls for APF activity. Beta actin expression served as a standard control for Western blot analyses (see FIGS. 38-40).
A general note: In western blotting, separated proteins are transferred to a membrane and probed.

The test system of test [3] is carcinoma cell lines (WiDr, HeLa, PANC-1, CaOv3, BT474, ACHN, T24, A549). In words: 3H-thymidine incorporation in carcinoma cell lines. The format is cell-based. As to conditions: 48 hrs. The procedure:
Ovarian carcinoma (Caov-3), prostate carcinoma (LNCaP), melanoma (Hs839.T), pancreatic carcinoma (PANC-1), bladder carcinoma (T24, RT4 and TCCSuP), kidney carcinoma (ACHN), cervical carcinoma (HeLa), lung carcinoma (A549), colon carcinoma (WiDr), and breast carcinoma (Bt-474) cells were all purchased from the American Type Culture Collection (ATCC). Caov-3, HS839.T, PANC-1, and BT-474 cells were grown in DMEM medium (with 4 mM L-glutamine—Gibco BRL) containing 10% heat-inactivated fetal calf serum, 4.5 g/L glucose, 1.5 g/L sodium bicarbonate and 1% antibiotic/antimycotic solution (all supplements from Sigma except sodium bicarbonate which is from Gibco BRL). LNCaP cells were grown in RPMI medium (with 2 mM L-glutamine—Gibco BRL) containing10% heat-incativated fetal calf serum, 10 mM HEPES buffer, 1 mM sodium pyruvate, 4.5 g/L glucose, 1.5 g/L sodium bicarbonate, and 1% antibiotic/antimycotic solution (all supplements from Sigma except sodium bicarbonate which is from Gibco BRL). […]
Cancer (carcinoma or melanoma) cell proliferation was measured by ^3H-thymidine incorporation into each type of cancer cell, plating 3.0×10^3 cells/well (A549 cells) or 1.5×10^3 cells/well (all other cancer cells) onto a 96 well cell culture plate (VWR 29442-054), in 150 ul/well of the respective normal growth medium for each cell type (see above). […]
as §1
as §2, with “cells/well.” for “cells/well. On the next day, cell growth medium was removed and replaced with serum-free medium appropriate for each cell type.”

Setting [4] is: nonelectroporated T24 control cells, p<0.05.

Consider `CC(=O)NC1C(O[C@@H]2OC(CO)[C@H](O)C(O)C2O)[C@@H](O)C(CO)O[C@@H]1OC(C)[C@H](N)C(=O)NC(C(=O)N1CCC[C@H]1C(=O)NC(C)C(=O)N[C@@H](C)C(=O)NC(C(=O)N[C@H](C(=O)NC(C(=O)N[C@@H](C)C(=O)O)C(C)C)C(C)C)C(C)C)C(C)C` (stereo partly drawn) [Derivative 1, Galβ1-3GalNAcα-O-TVPAAVVVA], for which, in the test on Hs839.T melanoma cells (48 hrs, compared to cell medium alone (p<0.00001)), the “inhibition of melanoma cell proliferation” value is “significantly inhibited proliferation”. Also, the “IC50 in melanoma cells” value with Hs839.T melanoma cells (48 hrs, listed as as-APF) is reported as “low to mid nanomolar range”. In addition, the “inhibitor concentration at which significant inhibition occurred, melanoma cells vs carcinoma cells” value in the test with Hs839.T melanoma cells (listed as as-APF) is recorded as 1-2 orders of magnitude higher. The “inhibitor concentration at which significant inhibition occurred, melanoma cells vs carcinoma cells” value in the test on Hs839.T melanoma cells (listed as asialo-APF) is listed as 2 orders of magnitude higher. The “activity in biological antiproliferation assays, previously determined” value in test [1] is on record as “essentially equipotent”. In test [2] (T24 cells, p>0.05), the “mRNA and protein expression of total Akt, GSK3beta, beta catenin” value was “neither mRNA nor protein expression of total Akt, GSK3beta, or beta catenin changed significantly”. Further, in test [2] (setting [4]), the “Akt phosphorylation (serine 473 and threonine 308)” value was “significantly decreased”; the “GSK3beta phosphorylation (tyrosine 216)” value is on record as “significantly decreased”; the “beta catenin phosphorylation (serine 33/37 and threonine 41)” value was “significantly increased”; the “beta catenin phosphorylation (serine 45)” value was “significantly decreased”. In addition, the “inhibition of carcinoma cell line proliferation” value in test [3] (compared to cell medium alone (p<0.00001)) is given as “significantly inhibited proliferation”. Also, in test [3] (listed as as-APF), the “IC50 in carcinoma cell lines” value is “low to mid nanomolar range”.
